“Also recorded” adds a separate entry of the source.
Tests used:
PKL = target: T1, PKL (Homo sapiens, UniProt P30613); assay: In vitro pyruvate kinase assay (Kinase-Glo Max luminescence), PKL; format: biochemical; conditions: for PKL IC50: 0.1 mM ADP, 0.125 mM PEP, rt 30 min, Inactive = less than 30% inhibition at 10 µM; for Change of PKL inhibitory activity relative to Uro D (5): removal of one hydroxyl group from 5
T1 construct: purchased BPS Bioscience
Source text: (§1) In the absence of the compound, the intensity (Ce) in each data set was defined as 100% activity.

PKM2 = PKM2 (Homo sapiens, UniProt P14618); assay: In vitro pyruvate kinase assay, PKM2; format: biochemical; conditions: printed in the PKM2 IC50 column; footnote a: value refers to EC50; read-out: PKM2 EC50 (compound behaves as an activator)
Chain of PKM2 (P14618 whole entry): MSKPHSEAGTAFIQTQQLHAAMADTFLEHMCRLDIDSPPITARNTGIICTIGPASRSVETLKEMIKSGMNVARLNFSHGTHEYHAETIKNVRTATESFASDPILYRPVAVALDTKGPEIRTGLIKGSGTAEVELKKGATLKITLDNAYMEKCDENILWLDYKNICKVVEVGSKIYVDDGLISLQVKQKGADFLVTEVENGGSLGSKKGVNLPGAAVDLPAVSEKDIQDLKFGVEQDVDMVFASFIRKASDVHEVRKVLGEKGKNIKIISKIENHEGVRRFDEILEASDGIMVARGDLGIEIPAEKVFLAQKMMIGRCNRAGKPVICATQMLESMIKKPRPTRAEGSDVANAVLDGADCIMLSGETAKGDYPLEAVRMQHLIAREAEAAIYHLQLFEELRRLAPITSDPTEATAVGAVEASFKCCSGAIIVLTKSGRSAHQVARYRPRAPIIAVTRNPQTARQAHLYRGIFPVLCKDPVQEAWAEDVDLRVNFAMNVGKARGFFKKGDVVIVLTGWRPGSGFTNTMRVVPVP
Source text: as §1

PKR = target: T2, PKR (Homo sapiens, UniProt P30613); assay: In vitro pyruvate kinase assay (Kinase-Glo Max luminescence), PKR; format: biochemical; conditions: for PKR IC50: 0.1 mM ADP, 0.125 mM PEP, rt 30 min, Inactive = less than 30% inhibition at 10 µM
T2 construct: purchased BPS Bioscience
T2 sequence (P30613 whole entry): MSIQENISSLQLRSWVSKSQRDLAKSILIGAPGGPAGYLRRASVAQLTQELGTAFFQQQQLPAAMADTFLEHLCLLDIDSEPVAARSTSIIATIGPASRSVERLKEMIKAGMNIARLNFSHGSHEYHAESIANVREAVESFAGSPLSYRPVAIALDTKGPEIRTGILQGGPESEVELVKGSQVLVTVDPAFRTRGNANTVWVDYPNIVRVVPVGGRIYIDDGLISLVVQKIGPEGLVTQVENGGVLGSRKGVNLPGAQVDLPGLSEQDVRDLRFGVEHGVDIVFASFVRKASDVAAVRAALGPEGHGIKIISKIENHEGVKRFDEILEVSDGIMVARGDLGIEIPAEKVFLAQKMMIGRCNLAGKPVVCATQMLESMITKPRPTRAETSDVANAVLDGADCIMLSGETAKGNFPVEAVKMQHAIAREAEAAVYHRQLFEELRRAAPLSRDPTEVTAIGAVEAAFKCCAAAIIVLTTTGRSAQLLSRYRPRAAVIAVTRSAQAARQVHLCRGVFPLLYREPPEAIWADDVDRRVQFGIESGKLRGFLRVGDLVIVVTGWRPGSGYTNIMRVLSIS
Source text: as §1

PKM1 = PKM1 (Homo sapiens, UniProt P14618); assay: In vitro pyruvate kinase assay, PKM1; format: biochemical
Chain of PKM1 (P14618 1-531 isoform P14618-2): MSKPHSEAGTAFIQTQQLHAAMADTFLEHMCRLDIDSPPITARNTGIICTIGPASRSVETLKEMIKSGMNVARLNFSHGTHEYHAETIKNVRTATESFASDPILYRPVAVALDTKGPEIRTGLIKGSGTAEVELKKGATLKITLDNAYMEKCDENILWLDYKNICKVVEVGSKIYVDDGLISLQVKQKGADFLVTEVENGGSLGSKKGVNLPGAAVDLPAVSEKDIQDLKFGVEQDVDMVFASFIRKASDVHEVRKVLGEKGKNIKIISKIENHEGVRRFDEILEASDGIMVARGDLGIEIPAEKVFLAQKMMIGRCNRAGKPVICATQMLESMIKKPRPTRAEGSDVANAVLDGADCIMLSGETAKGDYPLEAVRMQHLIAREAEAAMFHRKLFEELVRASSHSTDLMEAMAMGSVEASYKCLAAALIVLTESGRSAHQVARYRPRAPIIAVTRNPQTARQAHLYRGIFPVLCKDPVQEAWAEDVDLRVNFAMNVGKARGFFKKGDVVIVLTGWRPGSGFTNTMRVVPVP
Source text: as §1

T1 sequence (P30613 1-543 isoform P30613-2): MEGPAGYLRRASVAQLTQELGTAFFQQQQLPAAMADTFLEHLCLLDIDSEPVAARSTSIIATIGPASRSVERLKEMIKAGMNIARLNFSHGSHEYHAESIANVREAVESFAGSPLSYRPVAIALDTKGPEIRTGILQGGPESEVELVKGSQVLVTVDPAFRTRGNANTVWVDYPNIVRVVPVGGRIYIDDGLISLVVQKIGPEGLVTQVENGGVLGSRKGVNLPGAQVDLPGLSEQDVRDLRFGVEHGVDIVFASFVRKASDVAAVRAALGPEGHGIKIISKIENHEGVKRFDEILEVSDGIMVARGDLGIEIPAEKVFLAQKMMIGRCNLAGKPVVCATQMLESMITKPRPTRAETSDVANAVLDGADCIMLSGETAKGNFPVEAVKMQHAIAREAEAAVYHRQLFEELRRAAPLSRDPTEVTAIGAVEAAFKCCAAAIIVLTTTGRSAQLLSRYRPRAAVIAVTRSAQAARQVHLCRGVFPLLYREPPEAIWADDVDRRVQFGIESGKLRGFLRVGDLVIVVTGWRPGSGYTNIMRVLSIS

With `O=c1oc2c(O)c(O)cc3c(=O)oc4c(O)c(O)cc1c4c23` [Compound 1, ellagic acid] the IC50 (PKL) was 32 nM, the “Mode of PKL inhibition” value (PKL; different concentrations of ADP, activity independent of substrate concentration) was “non-competitive allosteric inhibitor” and the EC50 (PKM2) was 70 nM. For the same compound, the IC50 (PKR) was 4.7 µM and the IC50 (PKM1) was 81 µM.
Work on `O=c1cc(-c2ccc(O)c(O)c2)oc2cc(O)cc(O)c12` [Compound 2, luteolin] yielded an IC50 (PKL) of 12000 nM and an IC50 (PKR) greater than 100 µM.
`Oc1cc(O)c2cc(O)c(-c3ccc(O)c(O)c3)[o+]c2c1` [Compound 3, cyanidin] gave an IC50 (PKL) of 2100 nM and an IC50 (PKR) of 7.4 µM.
Compound `O=c1oc2c(O)c(O)ccc2c2cc(O)c(O)cc12` [Compound 5, urolithin D] has an IC50 (PKL) of 28 nM, an EC50 (PKM2) of 30 nM and an IC50 (PKR) of 1.27 µM. For the same compound, the IC50 (PKM1) was 36 µM.
With `O=c1occc2cc(O)c(O)cc12` [Compound 6, 6,7-dihydroxy-1H-isochromen-1-one] the “PKL IC50” value (PKL) was “Inactive ^b”, the “PKR IC50” value (PKR) was “Inactive ^b” and the melting point was 265 to 267 °C.
For `O=c1ccc2ccc(O)c(O)c2o1` [Compound 7], the “PKL IC50” value (PKL) was “Inactive ^b” and the “PKR IC50” value (PKR) was “Inactive ^b”.
`Oc1ccc(-c2ccc(O)c(O)c2O)c(O)c1O` [Compound 8, [1,1’-Biphenyl]-2,2’,3,3’,4,4’-hexaol] gave an IC50 (PKL) of 3500 nM, an IC50 (PKR) of 12 µM and a melting point greater than 350 °C.
`Oc1ccc(-c2ccc(O)c(O)c2)cc1O` [Compound 9, [1,1’-biphenyl]-3,3’,4,4’-tetraol] gave an IC50 (PKL) of 2400 nM and an IC50 (PKR) of 5.1 µM.
With `O=c1oc2cc(O)ccc2c2cc(O)c(O)cc12` [Compound 10, 3,8,9-trihydroxy-6H-benzo[c]chromen-6-one] the IC50 (PKL) was 410 nM, the “Change of PKL inhibitory activity relative to Uro D (5)” value (PKL) was “reduced by approximately one order of magnitude” and the IC50 (PKR) was 2.6 µM.
In the case of `O=c1oc2cc(O)ccc2c2ccc(O)cc12` [Compound 11, Urolithin A], the “PKL IC50” value (PKL) is reported as “no inhibition was observed; also recorded: Inactive ^b” and the “PKR IC50” value (PKR) is reported as “Inactive ^b”.
In the case of `O=c1oc2cc(O)ccc2c2ccccc12` [Compound 12, Urolithin B], the “PKL IC50” value (PKL) is reported as “no inhibition was observed; also recorded: Inactive ^b” and the “PKR IC50” value (PKR) is reported as “Inactive ^b”.
In the case of `O=c1oc2c(O)cccc2c2cc(O)c(O)cc12` [Compound 13, 4,8,9-Trihydroxy-6H-benzo[c]chromen-6-one], the IC50 (PKL) is reported as 3900 nM, the “Change of PKL inhibitory activity relative to Uro D (5)” value (PKL) is reported as “hundred-fold reduction in activity” and the IC50 (PKR) is reported as 43 µM. It also gave a melting point of 345 to 347 °C.
`O=c1oc2c(O)c(O)ccc2c2cc(O)ccc12` [Compound 14, 3,4,9-Trihydroxy-6H-benzo[c]chromen-6-one] showed an IC50 (PKL) of 2100 nM and an IC50 (PKR) of 68 µM.
For `O=c1oc2c(O)c(O)ccc2c2ccc(O)cc12` [Compound 15, 3,4,8-Trihydroxy-6H-benzo[c]chromen-6-one], the IC50 (PKL) was 1700 nM, the “Change of PKL inhibitory activity relative to Uro D (5)” value (PKL) was “dramatically reduced inhibitory activity” and the IC50 (PKR) was greater than 100 µM.
`O=C(COP(=O)(O)O)[C@@H](O)[C@H](O)[C@H](O)COP(=O)(O)O` [FBP, Fructose-1,6-biphosphate, reference compound] gave an EC50 (PKL; printed in the PKL IC50 column, footnote a: value refers to EC50, read-out: PKL EC50 (compound behaves as an activator)) of 20 nM, an EC50 (PKM2) of 50 nM and an EC50 (PKR; printed in the PKR IC50 column, footnote a: value refers to EC50, read-out: PKR EC50 (compound behaves as an activator)) of 10 nM. For the same compound, the “PKM1 IC50” value (PKM1) was “Inactive”.
